Values joined by “and” are separate entries in the source; they are usually repeats but may differ in a detail not shown here. Identical values can stand only once.
System: phosphoenolpyruvate carboxylase (PEPC)
Assay type: biochemical, wheat germ

In the case of `[K+].[O-][Cl+2]([O-])[O-]` [KClO3], the “k × 10^3” value was 24.

With `[K+].[O-][Cl+3]([O-])([O-])[O-]` [KClO4] the “T1/2 (half-life seconds)” value was 104 s and the “k × 10^3” value was 6.3.

For `[I-].[K+]` [KI], the “k × 10^3” value was 12.

With `N#CS` [KSCN, potassium thiocyanate] the “k × 10^3” value was 4.67 and 4.70 and 4.72 and 4.62 and 4.55 and 4.46.

Reference: patent US5480777A (priority 1995, dated 1996)
